In patent US20250304576A1 (Cancer Research Technology Limited, priority 2022, published 2025) one finds Ki data, which are given here for 26 compounds.

Some results are limits rather than exact numbers.

One assay concerns the target T1, Recombinant IKKα (Homo sapiens, UniProt O15111).
T1 construct: purchased Millipore, Dundee, UK
T1 sequence (O15111 1-745): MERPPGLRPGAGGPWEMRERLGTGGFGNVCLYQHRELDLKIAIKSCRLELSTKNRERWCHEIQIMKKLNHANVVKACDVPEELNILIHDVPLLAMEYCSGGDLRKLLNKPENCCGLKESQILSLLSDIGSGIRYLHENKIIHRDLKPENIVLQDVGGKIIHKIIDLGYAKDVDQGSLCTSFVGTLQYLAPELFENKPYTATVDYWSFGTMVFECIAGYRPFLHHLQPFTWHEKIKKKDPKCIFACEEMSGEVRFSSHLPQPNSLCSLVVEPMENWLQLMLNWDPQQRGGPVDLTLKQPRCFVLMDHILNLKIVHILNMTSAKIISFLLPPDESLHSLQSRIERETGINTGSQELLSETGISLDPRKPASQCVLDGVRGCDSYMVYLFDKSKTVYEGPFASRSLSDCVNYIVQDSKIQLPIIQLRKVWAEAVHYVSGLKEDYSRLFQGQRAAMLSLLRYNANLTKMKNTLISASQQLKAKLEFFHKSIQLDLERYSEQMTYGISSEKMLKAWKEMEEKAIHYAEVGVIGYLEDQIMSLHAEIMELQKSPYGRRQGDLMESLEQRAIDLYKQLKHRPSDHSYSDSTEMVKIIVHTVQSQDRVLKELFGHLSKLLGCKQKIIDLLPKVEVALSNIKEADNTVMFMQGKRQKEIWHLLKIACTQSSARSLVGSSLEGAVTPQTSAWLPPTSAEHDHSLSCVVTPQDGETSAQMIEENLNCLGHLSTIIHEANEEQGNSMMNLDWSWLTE
Nature of the assay: DELFIA IKKα kinase assay (apparent Ki, Cheng-Prusoff). Type of assay: biochemical. Conditions: DELFIA assay (first line of an example). The method, boiled down:
(§1)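 Recombinant IKKα or IKKβ (37 nM) with 0.375 μM biotinylated IκB-α (Ser32) peptide and 40 μM ATP in 40 mM Tris-HCl pH 7.5, 20 mM MgCl2, 60 min at 30° C. Phospho-substrate captured on streptavidin and detected by anti-phospho-IκB-α plus europium anti-mouse IgG time-resolved fluorescence; apparent Ki via Cheng-Prusoff.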

A further assay has as its target T2, Recombinant IKKβ (Homo sapiens, UniProt O14920).
T2 construct: purchased Millipore, Dundee, UK
T2 sequence (O14920 1-756): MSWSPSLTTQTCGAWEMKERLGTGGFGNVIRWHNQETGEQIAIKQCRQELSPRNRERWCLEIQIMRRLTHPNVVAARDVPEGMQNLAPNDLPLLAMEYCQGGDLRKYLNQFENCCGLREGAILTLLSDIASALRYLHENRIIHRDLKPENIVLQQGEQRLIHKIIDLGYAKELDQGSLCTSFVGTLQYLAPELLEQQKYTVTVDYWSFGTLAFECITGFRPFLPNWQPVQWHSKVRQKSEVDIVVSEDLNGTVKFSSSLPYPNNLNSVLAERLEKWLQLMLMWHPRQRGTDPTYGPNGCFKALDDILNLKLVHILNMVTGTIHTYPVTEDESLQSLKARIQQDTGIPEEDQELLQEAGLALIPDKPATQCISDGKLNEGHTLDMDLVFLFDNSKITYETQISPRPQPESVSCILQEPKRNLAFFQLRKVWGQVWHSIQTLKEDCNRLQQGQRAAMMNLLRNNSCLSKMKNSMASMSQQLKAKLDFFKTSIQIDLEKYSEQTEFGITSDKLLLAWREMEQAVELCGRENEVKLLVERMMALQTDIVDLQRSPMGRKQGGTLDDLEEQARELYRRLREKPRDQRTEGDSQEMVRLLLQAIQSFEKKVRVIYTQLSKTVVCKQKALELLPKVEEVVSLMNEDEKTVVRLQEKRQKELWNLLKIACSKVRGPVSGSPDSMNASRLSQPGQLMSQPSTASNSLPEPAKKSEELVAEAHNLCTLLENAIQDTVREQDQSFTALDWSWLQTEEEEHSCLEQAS
Kind of assay: DELFIA IKKβ kinase assay (apparent Ki, Cheng-Prusoff). The format is biochemical. Conditions: DELFIA assay (first line of an example). The method, boiled down:
as §1

`Nc1n[nH]c2c(C#CCCCN3CCCCC3)cc(-c3ccnc4[nH]ccc34)cc12` [Example 212, 7-(5-(Piperidin-1-yl)pent-1-yn-1-yl)-5-(1H-pyrrolo[2,3-b]pyridin-4-yl)-1H-indazol-3-amine]: the values for the Ki on Recombinant IKKα and at Recombinant IKKβ were 30 nM and 2370 nM, respectively.

For `Nc1n[nH]c2ccc(-c3ccnc4[nH]c(C5CC5)cc34)cc12` [Example 218, 5-(2-Cyclopropyl-1H-pyrrolo[2,3-b]pyridin-4-yl)-1H-indazol-3-amine], the Ki at Recombinant IKKα was determined as 5 nM; at Recombinant IKKβ it was 63 nM.

In the case of `Nc1n[nH]c2ccc(-c3ccnc4[nH]c(C5CCCCC5)cc34)cc12` [Example 219, 5-(2-Cyclohexyl-1H-pyrrolo[2,3-b]pyridin-4-yl)-1H-indazol-3-amine], the values for the Ki at Recombinant IKKα and on Recombinant IKKβ were 42 nM and 461 nM, respectively.

As for `CC(C)(C)Cc1cc2c(-c3ccc4[nH]nc(N)c4c3)ccnc2[nH]1` [Example 220, 5-(2-Neopentyl-1H-pyrrolo[2,3-b]pyridin-4-yl)-1H-indazol-3-amine], the Ki at Recombinant IKKα came to 58 nM; at Recombinant IKKβ it was 838 nM.

For the compound `Nc1n[nH]c2ccc(-c3ccnc4[nH]c(CC5CCCCC5)cc34)cc12` [Example 221, 5-(2-(Cyclohexylmethyl)-1H-pyrrolo[2,3-b]pyridin-4-yl)-1H-indazol-3-amine], the Ki came to 38 nM at Recombinant IKKα and 461 nM on Recombinant IKKβ.

For `Nc1n[nH]c2ccc(-c3ccnc4[nH]c(CCC5CCCCC5)cc34)cc12` [Example 222, 5-(2-(2-Cyclohexylethyl)-1H-pyrrolo[2,3-b]pyridin-4-yl)-1H-indazol-3-amine], the values for the Ki on Recombinant IKKα and on Recombinant IKKβ were 19 nM and 134 nM, respectively.

With `Nc1n[nH]c2ccc(-c3ccnc4[nH]c(CO)cc34)cc12` [Example 224], the Ki at Recombinant IKKα was found to be 5 nM; on Recombinant IKKβ, 503 nM.

As to `CC(C)(C)OCc1cc2c(-c3ccc4[nH]nc(N)c4c3)ccnc2[nH]1` [Example 227, 5-(2-(tert-Butoxymethyl)-1H-pyrrolo[2,3-b]pyridin-4-yl)-1H-indazol-3-amine], the Ki at Recombinant IKKα was determined as 29 nM; on Recombinant IKKβ it was 754 nM.

With `Nc1n[nH]c2ccc(-c3ccnc4[nH]c(C5CCOCC5)cc34)cc12` [Example 228, 5-(2-(tetrahydro-2H-pyran-4-yl)-1H-pyrrolo[2,3-b]pyridin-4-yl)-1H-indazol-3-amine], the Ki on Recombinant IKKα came out at 12 nM; on Recombinant IKKβ it was 97 nM.

As for `Nc1n[nH]c2ccc(-c3ccnc4[nH]c(C5CCCCO5)cc34)cc12` (stereo not shown) [Example 229, 5-(2-(Tetrahydro-2H-pyran-2-yl)-1H-pyrrolo[2,3-b]pyridin-4-yl)-1H-indazol-3-amine], the Ki at Recombinant IKKα worked out at 27 nM; on Recombinant IKKβ, 272 nM.

Take `Nc1n[nH]c2ccc(-c3ccnc4[nH]c(CC5CCOCC5)cc34)cc12` [Example 230, 5-(2-((tetrahydro-2H-pyran-4-yl)methyl)-1H-pyrrolo[2,3-b]pyridin-4-yl)-1H-indazol-3-amine]: the Ki on Recombinant IKKα was 11 nM; on Recombinant IKKβ, 260 nM.

Regarding `Nc1n[nH]c2ccc(-c3ccnc4[nH]c(C(=O)N5CCCC5)cc34)cc12` [Example 234, (4-(3-Amino-1H-indazol-5-yl)-1H-pyrrolo[2,3-b]pyridin-2-yl)(pyrrolidin-1-yl)methanone], the Ki came to 19 nM on Recombinant IKKα and 272 nM on Recombinant IKKβ.

Consider `Nc1n[nH]c2ccc(-c3ccnc4[nH]c(C(=O)NC5CCCCC5)cc34)cc12` [Example 236, 4-(3-Amino-1H-indazol-5-yl)-N-cyclohexyl-1H-pyrrolo[2,3-b]pyridine-2-carboxamide], for which the Ki at Recombinant IKKα came out at 10 nM; at Recombinant IKKβ, 79 nM.

On to `CN1CCN(C(=O)c2cc3c(-c4ccc5[nH]nc(N)c5c4)ccnc3[nH]2)CC1` [Example 243, (4-(3-Amino-1H-indazol-5-yl)-1H-pyrrolo[2,3-b]pyridin-2-yl)(4-methylpiperazin-1-yl)methanone], for which the Ki on Recombinant IKKα stood at 72 nM; on Recombinant IKKβ, 1030 nM.

Turning to `CC(C)(C)NCc1cc2c(-c3ccc4[nH]nc(N)c4c3)ccnc2[nH]1` [Example 248, 5-(2-((tert-Butylamino)methyl)-1H-pyrrolo[2,3-b]pyridine-4-yl)-1H-indazol-3-amine], the Ki on Recombinant IKKα turned out to be 202 nM; at Recombinant IKKβ it was 4020 nM.

Consider `Nc1n[nH]c2ccc(-c3ccnc4[nH]c(C5CCCCN5)cc34)cc12` (stereo not shown) [Example 250, 5-(2-(Piperidin-2-yl)-1H-pyrrolo[2,3-b]pyridine-4-yl)-1H-indazol-3-amine], for which the Ki at Recombinant IKKα was 380 nM; on Recombinant IKKβ, over 10000 nM.

Consider `Nc1n[nH]c2ccc(-c3ccnc4[nH]c(CNC5CCCCC5)cc34)cc12` [Example 251, 5-(2-((cyclohexylamino)methyl)-1H-pyrrolo[2,3-b]339yridine-4-yl)-1H-indazol-3-amine], for which the Ki on Recombinant IKKα was determined as 74 nM; on Recombinant IKKβ, 1300 nM.

For `CN(C)CCCNCc1cc2c(-c3ccc4[nH]nc(N)c4c3)ccnc2[nH]1` [Example 258, N^1-((4-(3-amino-1H-indazol-5-yl)-1H-pyrrolo[2,3-b]pyridin-2-yl)methyl)-N^3,N^3-dimethylpropane-1,3-diamine], the Ki at Recombinant IKKα came to 16 nM; on Recombinant IKKβ it was 1130 nM.

Take `CC(C)N(C)Cc1cc2c(-c3ccc4[nH]nc(N)c4c3)ccnc2[nH]1` [Example 259, 5-(2-((Isopropyl(methyl)amino)methyl)-1H-pyrrolo[2,3-b]pyridine-4-yl)-1H-indazol-3-amine]: the Ki was determined as 110 nM on Recombinant IKKα and 2140 nM on Recombinant IKKβ.

`Nc1n[nH]c2ccc(-c3ccnc4[nH]c(CN5CCCCC5)cc34)cc12` [Example 260, 5-(2-(Piperidin-1-ylmethyl)-1H-pyrrolo[2,3-b]pyridine-4-yl)-1H-indazol-3-amine]: the Ki at Recombinant IKKα was determined as 91 nM; at Recombinant IKKβ, 1720 nM.

Consider `Nc1n[nH]c2ccc(-c3ccnc4[nH]c(CN5CCC(F)(F)CC5)cc34)cc12` [Example 261, 5-(2-((4,4-Difluoropiperidin-1-yl)methyl)-1H-pyrrolo[2,3-b]pyridine-4-yl)-1H-indazol-3-amine], for which the results for the Ki on Recombinant IKKα and on Recombinant IKKβ were 49 nM and 2390 nM, respectively.

As to `Nc1n[nH]c2ccc(-c3ccnc4[nH]c(CN5CCOCC5)cc34)cc12` [Example 262, 5-(2-(Morpholinomethyl)-1H-pyrrolo[2,3-b]pyridine-4-yl)-1H-indazol-3-amine], the Ki is 22 nM at Recombinant IKKα and 277 nM at Recombinant IKKβ.

Regarding `CN1CCN(Cc2cc3c(-c4ccc5[nH]nc(N)c5c4)ccnc3[nH]2)CC1` [Example 263, 5-(2-((4-Methylpiperazin-1-yl)methyl)-1H-pyrrolo[2,3-b]pyridine-4-yl)-1H-indazol-3-amine], the values for the Ki at Recombinant IKKα and at Recombinant IKKβ were 62 nM and 2430 nM, respectively.

As for `Nc1n[nH]c2ccc(-c3ccnc4[nH]c(CN5CCCCCC5)cc34)cc12` [Example 265, 5-(2-(Azepan-1-ylmethyl)-1H-pyrrolo[2,3-b]pyridine-4-yl)-1H-indazol-3-amine], the figures for the Ki at Recombinant IKKα and at Recombinant IKKβ were 91 nM and 2510 nM, respectively.

Take `CN1CCCN(Cc2cc3c(-c4ccc5[nH]nc(N)c5c4)ccnc3[nH]2)CC1` [Example 266, 5-(2-((4-Methyl-1,4-diazepan-1-yl)methyl)-1H-pyrrolo[2,3-b]pyridin-4-yl)-1H-indazol-3-amine]: the Ki is 46 nM on Recombinant IKKα and 1800 nM on Recombinant IKKβ.

Turning to `Nc1n[nH]c2ccc(-c3ccnc4[nH]c(CCN5CCCCC5)cc34)cc12` [Example 267, 5-(2-(2-(Piperidin-1-yl)ethyl)-1H-pyrrolo[2,3-b]pyridine-4-yl)-1H-indazol-3-amine], the Ki at Recombinant IKKα was 53 nM; at Recombinant IKKβ it was 1380 nM.
